This data set in a line: Human HepG2 cell viability assay in 384 well format. As to conditions: HepG2 cells, read-out: Inhibition. Further details: dose 125 nL, time 70.5 hour; cytotoxicity at 70.5 h: concentration not given beside the values. The data set is classed as toxicity, cell-based.

Consider `CNC(=O)CCN(C)CC1(c2ccc(Br)cc2)CC1`, for which the cytotoxicity at 70.5 h was -0.48%. Regarding `COCC(O)CNC(=O)Nc1ccc(Cl)cc1-n1cccc1` (stereo not drawn), the cytotoxicity at 70.5 h was -7.23%.

`Cn1cc(CCC(=O)NC(c2ccc(F)cc2)C(F)(F)F)cn1` (stereo not drawn): the cytotoxicity at 70.5 h was -8.97%. In the case of `CCc1cnc(COc2ccc(OC3CCCCNC3=O)cc2)o1` (stereo not drawn), the cytotoxicity at 70.5 h was -4.27%. For the compound `CNC(=O)CN(C)CC1(c2ccc(Br)cc2)CC1`, the cytotoxicity at 70.5 h was 0.137%. With `CN1CCC(NC(=O)Nc2cnn(-c3ccccc3Cl)c2)CC1`, the cytotoxicity at 70.5 h is -5.23%. As for `Cc1ccc(CNC(=O)COc2ccc3c(c2)OCC3O)cc1` (stereo not drawn), the cytotoxicity at 70.5 h was -7.79%. Turning to `COCCNc1nnc(S(=O)(=O)CCC(C)(C)C#N)s1`, the cytotoxicity at 70.5 h is -5.9%. Turning to `Cc1ccc(C(=O)N2CCOCC2C(N)=O)c(F)c1` (stereo not drawn), the cytotoxicity at 70.5 h is -8.13%. Consider `O=C(CCn1cnc2ccccc21)N1CCN2CCCCC2C1` (stereo not drawn), for which the cytotoxicity at 70.5 h was determined as 27.2%. `Cn1cc(S(=O)(=O)NCC(C)(O)c2ccsc2)cn1` (stereo not drawn): the cytotoxicity at 70.5 h turned out to be 1.13%. Turning to `NC(=O)CSCCC(=O)NCC1CC1`, the cytotoxicity at 70.5 h stood at 3.32%.

On to `CC(C)S(=O)(=O)C(C)C(=O)NCc1ccccc1OCc1ccccc1` (stereo not drawn), for which the cytotoxicity at 70.5 h was -1.68%.

Regarding `CC(C)S(=O)(=O)C(C)C(=O)NCc1ccccc1COc1ccccc1` (stereo not drawn), the cytotoxicity at 70.5 h is -11%. On to `O=C1CCN(C(=O)CCc2ccc(Cl)cc2Cl)CCN1`, for which the cytotoxicity at 70.5 h is -6.13%. With `CC(=O)NCCNC(=O)NCC1Cc2ccccc2O1` (stereo not drawn), the cytotoxicity at 70.5 h is -4.29%. For `c1cc2c(cc1CN1CCN(Cc3noc(C4CC4)n3)CC1)OCO2`, the cytotoxicity at 70.5 h is -2.86%.

`O=c1n(CCNCc2ccc(-c3ccccc3)cc2)nc2ccccn12`: the cytotoxicity at 70.5 h is -8.68%. As for `O=C(NCC1CC(=O)N(CCc2ccccc2)C1)c1c(F)cccc1F` (stereo not drawn), the cytotoxicity at 70.5 h is 3.42%. The figure for `Cn1cccc1C(=O)OCCNC(=O)c1ccccc1` is -10.7%; for `O=C(NCC1CC(=O)N(CCc2ccccc2)C1)c1ccon1` (stereo not drawn) it is -3.55%; for `Cc1ccc(NC2CCN(C(=O)CCCc3ccccn3)CC2)cc1` it is -8.59%. For the compound `Cc1cc(CN(C)C(=O)NCc2ccnc(SC(C)(C)C)c2)no1`, the cytotoxicity at 70.5 h is -9.52%.

In the case of `CC(C)c1noc(CCC(=O)N2CCCC(n3ccnc3)C2)n1` (stereo not drawn), the cytotoxicity at 70.5 h was -5.4%. `Cc1nnc(C(C)Nc2cccc(COCCOC(C)C)c2)o1` (stereo not drawn): the cytotoxicity at 70.5 h was -1.57%. As to `CC(NC(=O)N1CCc2sccc2C1)c1nncn1C` (stereo not drawn), the cytotoxicity at 70.5 h was -5.43%.

For the compound `O=C(c1ccc(-n2ccnc2)cc1)N1CCCC1`, the cytotoxicity at 70.5 h amounted to 34.6%. For the compound `CC(NC(=O)N1CCc2ccccc2C1)c1nncn1C` (stereo not drawn), the cytotoxicity at 70.5 h was -13.5%. `O=C(Nc1cccnc1-n1cncn1)C1CCC1`: the cytotoxicity at 70.5 h was -22.6%. Regarding `Cc1ncc(C(=O)NCCNc2ncnc3sccc23)s1`, the cytotoxicity at 70.5 h was -2.99%. For `CN(C)c1ccc(C(=O)N2CCCC2c2ccc(Cl)cc2)nn1` (stereo not drawn), the cytotoxicity at 70.5 h was -11.3%. As to `CCOCC(=O)Nc1ccc(-n2ccc(C(N)=O)n2)cc1`, the cytotoxicity at 70.5 h was -5.89%. For the compound `Cc1nnc(C(C)Nc2cccc(COCC(F)(F)C(F)F)c2)o1` (stereo not drawn), the cytotoxicity at 70.5 h worked out at 24.9%.

On to `O=C(c1ccc(O)nc1)N1CCc2ccc(O)cc2C1`, for which the cytotoxicity at 70.5 h was -13%. Turning to `CCC(C)(CC(=O)OC)NC(=O)c1ccc(C(C)=O)cc1` (stereo not drawn), the cytotoxicity at 70.5 h was found to be 23.7%. Consider `Cc1cc(CC(=O)NCC(O)COc2ccc(F)c(F)c2)no1` (stereo not drawn), for which the cytotoxicity at 70.5 h was -12%. As for `CCC(C)(CC(=O)OC)NC(=O)c1ccc2[nH]ccc2c1` (stereo not drawn), the cytotoxicity at 70.5 h is -10.1%. The figure for `CCC(C)(CC(=O)OC)NC(=O)c1cccc(F)c1F` (stereo not drawn) is -14.7%; for `CC(=O)NCCCSC1CCN(c2ccccc2F)C1=O` (stereo not drawn) it is -11.5%; for `CC(=O)NCCCSC1CCCN(c2ccccc2Cl)C1=O` (stereo not drawn) it is -15.3%. Turning to `Cn1cc(C(=O)CC2CCCN2C(=O)c2ccn3ccnc3c2)cn1` (stereo not drawn), the cytotoxicity at 70.5 h is -10.3%. As for `CCc1nc(C2CCCN(C(=O)c3c[nH]c(C(C)C)n3)C2)no1` (stereo not drawn), the cytotoxicity at 70.5 h was -10.9%. The figure for `COc1cccc(CCCN2CCC(N(C)S(C)(=O)=O)CC2)c1` is 4.63%; for `Cc1c(NCc2ccccc2C#N)cccc1S(=O)(=O)NC1CC1` it is 5.79%.

`O=C(CN1CCS(=O)(=O)CC1)NC1CCOc2ccccc21` (stereo not drawn): the cytotoxicity at 70.5 h was -3.04%. The figure for `CS(=O)(=O)Nc1cccc(CNC(=O)CCc2ccsc2)c1` is -1.95%. On to `O=C(Cn1cc(Cl)cn1)Nc1ccc2c(c1)OCCCO2`, for which the cytotoxicity at 70.5 h was 25.9%. As to `CCNC(=O)C1CCCN(c2cccc(C(F)(F)F)n2)C1` (stereo not drawn), the cytotoxicity at 70.5 h is 21.5%. On to `CC(C(=O)N1CCN(c2ccc(F)cc2)CC1)n1ccnc1` (stereo not drawn), for which the cytotoxicity at 70.5 h was -3.73%. The figure for `O=C(CCn1ccc2ccccc21)N1CCC(Nc2cccnc2)CC1` is -1.56%. Consider `COC1CCN(C(=O)Cn2nc(C)cc2C)CC1`, for which the cytotoxicity at 70.5 h is -3.13%. Next, `O=C(NCC1CC1)C1CCCN(c2cccc(C(F)(F)F)n2)C1` (stereo not drawn): 19.6%.

Consider `Cc1nc(CCNc2ccc(-c3nc(C)c(C)c(=O)[nH]3)cn2)cs1`, for which the cytotoxicity at 70.5 h is -1.37%.

Regarding `CCCc1cc(C(=O)NCCCC(=O)N2Cc3ccccc3C2)[nH]n1`, the cytotoxicity at 70.5 h is -6.02%. In the case of `CS(=O)(=O)Cc1ccccc1NCc1cc(Cl)ccc1Cl`, the cytotoxicity at 70.5 h was 3.86%. On to `COCC1CCN(CCCc2cccc(OC)c2)CC1`, for which the cytotoxicity at 70.5 h was 30.7%.

Take `Clc1cccc(N2CCC(NCc3ncc[nH]3)C2)c1` (stereo not drawn): the cytotoxicity at 70.5 h stood at 0.765%. In the case of `CCc1cc(CNC(=O)N(C2CC2)C(C)c2ccco2)on1` (stereo not drawn), the cytotoxicity at 70.5 h was 23.3%. On to `Cn1c(C2CC2)nc2cc(NC(=O)C3CC=CC3)ccc21`, for which the cytotoxicity at 70.5 h was -5.03%. In the case of `Cc1cc(NC(=O)NCCc2cscn2)nn1C`, the cytotoxicity at 70.5 h is -4.59%. With `CC(C)c1n[nH]c(C2CN(Cc3ccno3)CCO2)n1` (stereo not drawn), the cytotoxicity at 70.5 h came to 0.21%. Regarding `CCc1cc(CNC(=O)N(C2CC2)C(C)c2ccco2)[nH]n1` (stereo not drawn), the cytotoxicity at 70.5 h is -5.28%.

For `O=C(CCn1ccc2ccccc21)N1CCN(Cc2cccnc2)CC1`, the cytotoxicity at 70.5 h worked out at 17.7%. The figure for `CCCC(=O)N(C)c1cccc2ncccc12` is -1.87%; for `Cc1ccnc(C(NC(=O)c2ccc(O)nc2C)C2CC2)n1` (stereo not drawn) it is 16.3%; for `NC(=O)CN(CC1CCOC1)C1CC1` (stereo not drawn) it is -2.08%.

Turning to `CN(c1ccc(CNC(=O)c2ccc(O)nc2)cc1)C1CCCCC1`, the cytotoxicity at 70.5 h came out at 0.503%. In the case of `CN(CC(=O)Nc1ccccc1C(=O)NC1CC1)Cc1ccccc1Cl`, the cytotoxicity at 70.5 h is 0.515%. The figure for `COc1cc(C2(C(=O)NC3CCN(CC4CC4)CC3)CC2)ccc1C` is -6%; for `O=C(CCc1ccc2c(c1)OCO2)Nc1cccnc1-n1cncn1` it is -2.15%; for `Cn1ccc(C(=O)N2CCOC(c3ccccc3)C2)cc1=O` (stereo not drawn) it is -7.42%.

For the compound `N#Cc1cccnc1N1CCCN(C(=O)CCc2cccs2)CC1`, the cytotoxicity at 70.5 h is -4.16%. As to `COc1cc(C2(C(=O)NC3CCN(C4CC4)CC3)CC2)ccc1C`, the cytotoxicity at 70.5 h was -4.2%. In the case of `Cn1ccc2c(C(=O)NCCCS(C)(=O)=O)cccc21`, the cytotoxicity at 70.5 h is 5.4%. Regarding `O=C(Nc1ccc(Cl)cn1)C1CCN(CCc2ccccn2)CC1`, the cytotoxicity at 70.5 h was -1.68%. Regarding `CC(C)(C)NC(=O)Cn1nc(C2CC2)cc(C(F)(F)F)c1=O`, the cytotoxicity at 70.5 h is -1.18%. For the compound `O=C(Nc1ccc(Cl)cn1)C1CCCN(CCc2ccccn2)C1` (stereo not drawn), the cytotoxicity at 70.5 h was found to be 14.5%.

With `CN1CCCN(c2nc(C3CC3)ns2)CC1`, the cytotoxicity at 70.5 h was -3.92%. Next, `Cc1nc(C)n(CC2CN(CCc3ccccn3)CCO2)n1` (stereo not drawn): -7.39%; `Cc1ncncc1C(=O)N1CCCN(Cc2cnn(C(C)C)c2)CC1`: 8.58%; `COc1c(C2CCCN2C(=O)c2cnn(C)c2C2CC2)c(C)nn1C` (stereo not drawn): -2.81%. Regarding `COc1c(C2CCCN2C(=O)c2sccc2C#N)c(C)nn1C` (stereo not drawn), the cytotoxicity at 70.5 h is -5.44%. On to `O=C(NCCCOCC1CCCO1)c1cccnc1N1CCOCC1` (stereo not drawn), for which the cytotoxicity at 70.5 h was 36.7%. As to `CC(C)CCC(=O)N1CCCC1c1nnc2n1CCCCC2` (stereo not drawn), the cytotoxicity at 70.5 h was -6.64%. Next, `CCN(CC)C(CNS(=O)(=O)c1ccc(C(C)=O)cc1)c1ccco1` (stereo not drawn): -3.55%; `CCN(CC)C(CNC(=O)c1ccc(S(=O)(=O)NC)cc1)c1ccco1` (stereo not drawn): 0.103%. `NC(=O)c1ccc(CN2CCC(N3CCCCC3)CC2)cc1`: the cytotoxicity at 70.5 h is -1.57%. Turning to `Cc1cc(C)n(CC2CN(Cc3ccc(C(N)=O)cc3)CCO2)n1` (stereo not drawn), the cytotoxicity at 70.5 h was -4.76%.

Take `CCCC1CCCN(C(=O)Nc2ccc(F)c(C(N)=O)c2)CC1` (stereo not drawn): the cytotoxicity at 70.5 h is -1.9%. With `c1nc(N2CCOC(Cn3cncn3)C2)c2sccc2n1` (stereo not drawn), the cytotoxicity at 70.5 h was determined as 29%. As for `CN1CCC(NC(=O)CC2CN(Cc3ccccc3)CCO2)CC1` (stereo not drawn), the cytotoxicity at 70.5 h is -5.42%. For `Cc1cnn(CC2CCCCN2C(=O)Cn2nc(C)c(Cl)c2C)c1` (stereo not drawn), the cytotoxicity at 70.5 h is -4.01%.

For the compound `CNc1cc(N2CCCC2CNCc2cccc(C(N)=O)c2)ncn1` (stereo not drawn), the cytotoxicity at 70.5 h is -2.53%. For the compound `Cc1noc(Cl)c1CC(=O)N1CCCC1Cn1cccn1` (stereo not drawn), the cytotoxicity at 70.5 h stood at 2.85%. With `Cc1cc(C)n(C2CCCN(C(=O)c3cccc(F)c3F)C2)n1` (stereo not drawn), the cytotoxicity at 70.5 h came to 38.7%.

As for `CNc1cc(N2CCCC2CNCc2cccnc2)ncn1` (stereo not drawn), the cytotoxicity at 70.5 h is 4.98%. With `Cc1cc(C)n(C2CCCN(C(=O)c3ccc(N(C)C)nn3)C2)n1` (stereo not drawn), the cytotoxicity at 70.5 h was -4.23%. As for `CNc1cc(N2CCCC2CNCc2cccs2)ncn1` (stereo not drawn), the cytotoxicity at 70.5 h was -1.51%. Consider `CS(=O)(=O)CCn1ccc(NC(=O)Cc2cccc(Cl)c2)n1`, for which the cytotoxicity at 70.5 h is -0.645%. `O=C(CC1CN(Cc2ccccc2)CCO1)NC1CCSCC1` (stereo not drawn): the cytotoxicity at 70.5 h came out at 3.03%.

Take `CC(C)C(N)CNS(=O)(=O)Cc1cccc2cccnc12` (stereo not drawn): the cytotoxicity at 70.5 h was -7.49%. With `NC(CNS(=O)(=O)Cc1cccc2cccnc12)c1ccccc1` (stereo not drawn), the cytotoxicity at 70.5 h was 28.4%. Consider `NC(=O)C(c1ccc(F)cc1)N1CCN(CCO)CC1` (stereo not drawn), for which the cytotoxicity at 70.5 h was -6.75%.

These data come from ChEMBL document CHEMBL3507680, “University of Dundee, Gates Library screen for HepG2 cell viability”.
